Tests used:
Assay in all cases: relative viability (nuclei count vs DMSO), 5 days (fraction); higher = more cells survive
Elesclomol + Phenformin = compound: CN(NC(=O)CC(=O)NN(C)C(=S)c1ccccc1)C(=S)c1ccccc1 [Elesclomol] + N=C(N)NC(=N)NCCc1ccccc1 [Phenformin] (partner 250 µM)
Procedure, shortened: (§1)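 For relative viability, nuclei counts in treated wells were divided by those in vehicle wells. Lung cancer cell lines had been pin-tool dosed in 1536-well plates the day after seeding and cultured for 5 days, then fixed and stained in one step (final 0.05% Triton X-100, 1% formaldehyde, 1 ug/ml Hoechst) and imaged at 4×. Doses were one drug alone or a fixed anchor-drug dose plus five library-drug doses (not always all listed) in √10 steps, and values are duplicate-plate medians.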

Elesclomol + Crizotinib = compound: CN(NC(=O)CC(=O)NN(C)C(=S)c1ccccc1)C(=S)c1ccccc1 [Elesclomol] + C[C@@H](Oc1cc(-c2cnn(C3CCNCC3)c2)cnc1N)c1c(Cl)ccc(F)c1Cl [Crizotinib] (partner 1 µM)
Procedure, shortened: as §1

Elesclomol + Foretinib = compound: CN(NC(=O)CC(=O)NN(C)C(=S)c1ccccc1)C(=S)c1ccccc1 [Elesclomol] + COc1cc2c(Oc3ccc(NC(=O)C4(C(=O)Nc5ccc(F)cc5)CC4)cc3F)ccnc2cc1OCCCN1CCOCC1 [Foretinib] (partner 0.25 µM)
Procedure, shortened: as §1

Elesclomol + Linsitinib = compound: CN(NC(=O)CC(=O)NN(C)C(=S)c1ccccc1)C(=S)c1ccccc1 [Elesclomol] + C[C@]1(O)C[C@@H](c2nc(-c3ccc4ccc(-c5ccccc5)nc4c3)c3c(N)nccn32)C1 [Linsitinib] (partner 1 µM)
Procedure, shortened: as §1

Elesclomol = compound: CN(NC(=O)CC(=O)NN(C)C(=S)c1ccccc1)C(=S)c1ccccc1 [Elesclomol]
Procedure, shortened: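 On vehicle-anchored 1536-well plates, lung cancer cell lines held overnight at 37 °C were pinned with five library-drug doses (not always all listed) spaced by √10. With no medium change over 5 days, they were then fixed, permeabilised and Hoechst-stained in one step and imaged at 4×. MetaXpress counted nuclei, and viability is the median across plates of treated-well over vehicle-well nuclei. Acceptance needed control CV below 25% and at least one doubling.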

| Cell Line | relative viability (Elesclomol + Phenformin; first compound 0.003162 µM) | relative viability (Elesclomol + Phenformin; first compound 0.01 µM) | relative viability (Elesclomol + Phenformin; first compound 0.03162 µM) | relative viability (Elesclomol + Phenformin; first compound 0.1 µM) | relative viability (Elesclomol + Crizotinib; first compound 0.003162 µM) | relative viability (Elesclomol + Crizotinib; first compound 0.01 µM) | relative viability (Elesclomol + Crizotinib; first compound 0.03162 µM) | relative viability (Elesclomol + Crizotinib; first compound 0.1 µM) | relative viability (Elesclomol + Foretinib; first compound 0.003162 µM) | relative viability (Elesclomol + Foretinib; first compound 0.01 µM) | relative viability (Elesclomol + Foretinib; first compound 0.03162 µM) | relative viability (Elesclomol + Foretinib; first compound 0.1 µM) | relative viability (Elesclomol + Linsitinib; first compound 0.003162 µM) | relative viability (Elesclomol + Linsitinib; first compound 0.01 µM) | relative viability (Elesclomol + Linsitinib; first compound 0.03162 µM) | relative viability (Elesclomol + Linsitinib; first compound 0.1 µM) | relative viability (Elesclomol; 0.003162 µM) | relative viability (Elesclomol; 0.01 µM) | relative viability (Elesclomol; 0.03162 µM) | relative viability (Elesclomol; 0.1 µM) |
| --- | --- | --- | --- | --- | --- | --- | --- | --- | --- | --- | --- | --- | --- | --- | --- | --- | --- | --- | --- | --- |
| 201T | 0.464 | 0.428 | 0.435 | 0.385 | 1.01 | 0.976 | 0.978 | 0.99 | 0.945 | 0.671 | 0.265 | 0.265 | 1.08 | 1.01 | 1 | 1.01 | 0.953 | 0.884 | 0.86 | 0.61 |
| NCI-H3122 | 0.325 | 0.274 | 0.261 | 0.219 | 0.253 | 0.329 | 0.296 | 0.217 | 1.01 | 0.961 | 0.839 | 0.135 | 1.04 | 1.07 | 0.956 | 0.228 | 0.987 | 1 | 0.957 | 0.349 |
| A549 | 0.0993 | 0.0488 | 0.0406 | 0.0078 | 0.445 | 0.239 | 0.0617 | 0.0458 | 0.886 | 0.504 | 0.0597 | 0.0242 | 0.627 | 0.501 | 0.378 | 0.097 | 0.912 | 0.417 | 0.24 | 0.0637 |
| NCI-H727 | 0.547 | 0.488 | 0.402 | 0.177 | 0.681 | 0.453 | 0.096 | 0.0428 | 0.745 | 0.611 | 0.526 | 0.317 | 0.297 | 0.217 | 0.117 | 0.0471 | 1.04 | 0.699 | 0.494 | 0.301 |
| NCI-H441 | 0.788 | 0.838 | 0.604 | 0.45 | 0.836 | 0.461 | 0.286 | 0.113 | 1.07 | 0.924 | 0.513 | 0.127 | 0.386 | 0.511 | 0.276 | 0.0877 | 1.06 | 0.945 | 0.55 | 0.179 |
| HOP-62 | 0.629 | 0.508 | 0.353 | 0.176 | 0.952 | 0.916 | 0.919 | 0.256 | 1.12 | 0.948 | 0.677 | 0.349 | 0.909 | 0.94 | 0.994 | 0.184 | 1.01 | 0.83 | 0.89 | 0.299 |
| RERF-LC-KJ | 0.341 | 0.347 | 0.267 | 0.218 | 0.832 | 0.473 | 0.373 | 0.336 | 0.858 | 0.812 | 0.522 | 0.323 | 0.897 | 0.752 | 0.412 | 0.322 | 0.816 | 0.493 | 0.316 | 0.311 |
| HCC-44 | 0.375 | 0.148 | 0.091 | 0.0922 | 0.767 | 0.73 | 0.808 | 0.457 | – | – | – | – | 0.678 | 0.604 | 0.623 | 0.345 | 0.968 | 0.935 | 0.831 | 0.764 |

Source: the supplement of paper PMC10307832
